The results in this text go back to publication PMC3602187, “From Design to Screening: A New Antimicrobial Peptide Discovery Pipeline” (PLoS ONE, 2013).

Where a SMILES comes first, the peptide text is derived from it.

The test system of one assay is Listeria innocua 33090. The assay can be described thus: MIC determination / agar spot assay of synthetic peptides. It is filed as cell-based. The following applies: synthetic peptides. How it is done:
Synthetic samples of wild-type Pln-423, two variants Pln-S23E and Pln-H28R/H34E from this study (Pln-4 and Pln-7 on Fig. 2), and another high-activity variant Pln-S27D/K36N (discovered during a pilot study, data not shown) were tested on agar plates at varying concentrations.
MICs were determined as previously described, [35]. Synthetic peptides were obtained from Peptide 2.0, Inc. (Chantilly, VA) and dissolved in 0.1% acetic acid/water solution at the final concentration of 2.5 mg/ml. Listeria innocua 33090 was grown in TSB until the turbidity of the culture match that of McFarland standard 0.5 (∼OD600 = 0.11) and diluted to final concentration of 5×10^5 cfu/ml in 20 ml TSB soft agar (1.2%) per plate. Two-fold serial dilutions (starting at 128 µg/ml) for each peptide was carried out in ultra-pure deionized water and 5 µl aliquots of each dilution were spotted on TSB plates. After the plates were incubated for 1 h at room temperature, they were placed at 37°C for overnight incubation. This experiment was performed in triplicate and the MIC was calculated as the lowest peptide concentration that formed a visible growth inhibition zone.
With `CC(C)C[C@H](NC(=O)[C@H](CCCNC(=N)N)NC(=O)[C@H](CO)NC(=O)[C@@H](NC(=O)[C@H](CO)NC(=O)[C@H](CS)NC(=O)[C@H](CO)NC(=O)[C@H](Cc1ccccc1)NC(=O)[C@H](C)NC(=O)[C@H](CCC(N)=O)NC(=O)CNC(=O)[C@H](Cc1c[nH]c2ccccc12)NC(=O)[C@H](CC(N)=O)NC(=O)[C@@H](NC(=O)[C@H](CO)NC(=O)[C@H](CS)NC(=O)[C@H](CO)NC(=O)[C@H](Cc1c[nH]cn1)NC(=O)[C@H](CCCCN)NC(=O)CNC(=O)[C@H](CS)NC(=O)[C@@H](NC(=O)[C@@H](NC(=O)CNC(=O)[C@H](CC(N)=O)NC(=O)CNC(=O)[C@H](Cc1ccc(O)cc1)NC(=O)[C@H](Cc1ccc(O)cc1)NC(=O)[C@@H](N)CCCCN)C(C)C)[C@@H](C)O)C(C)C)C(C)C)C(=O)N[C@@H](C)C(=O)N[C@@H](CC(N)=O)C(=O)N[C@@H](Cc1ccccc1)C(=O)NCC(=O)N[C@@H](CCC(=O)O)C(=O)NCC(=O)N[C@@H](CCCCN)C(=O)N[C@@H](CS)C(=O)O` [PLN-H28R/H34E] (H-KYYGNGVTCGKHSCSVNWGQAFSCSVSRLANFGEGKC-OH; N-terminus and C-terminus assumed), the “MIC fold lower than wild-type Pln-423” value was found to be 2 fold.

In a further assay the test system is Listeria innocua 33090. Nature of the assay: colony overlay assay of peptide-secreting E. coli clones (library screening and re-test). The format is cell-based. Details: key: higher activity group (H); equal activity group (E); lower activity group (L). The conditions noted are these: library screening; selected colonies pooled by zone size; peptides identified by 454 sequencing, full-length sequences with minimum 20 reads. The procedure, abridged:
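Pln-423 mutant library expressed periplasmically in leaky E. coli JE5505 (pFLAG-CTS); colonies grown 24 h at 37°C, then overlaid with TSB soft agar containing 1 mM IPTG and L. innocua ATCC 33090 (OD600 = 0.03) and incubated overnight at 30°C. Activity scored by inhibition-zone size versus wild-type Pln-423; hits re-tested after 4 h regrowth.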
On to “KYYGNGVTCGKHSCSVNWGQAFSCTVSHLANFGHGKC* [GROUP L-UM-28]”, for which the “activity group by size of inhibition zone compared to wild-type Pln-423” value is listed as “L”.

As to “KYYGNGVTCGKHSCSVNWGQAFSCTVSNLANFGHGKC* [Pep-2_6771]”, the “activity group by size of inhibition zone compared to wild-type Pln-423” value is “L and E and H”.

Regarding “KYYGNGVTCGKHSCSVNWGQAFSCVVRHLANFGHGKC* [Pep-2_4939]”, the “activity group by size of inhibition zone compared to wild-type Pln-423” value is on record as “L”.

Consider “KYYGNGVTCGKHSCSVNWGQAFSCVVSHIANFGHGKC* [Pep-2_4954]”, for which the “activity group by size of inhibition zone compared to wild-type Pln-423” value is reported as “L”.

For the compound “KYYGNGVTCGKHSCSVNWGQAFSCVVSHLANFGHGKC* [Pep-1_46]”, the “activity group by size of inhibition zone compared to wild-type Pln-423” value is “L”.

On to “KYYGNGVTCGKHSCSVNWGQAFSCVVSHLANFGHGTC* [Pep-2_4995]”, for which the “activity group by size of inhibition zone compared to wild-type Pln-423” value is recorded as “L”.

Regarding “KYYGNGVTCGKHSCSVNWGQAFSCVWSHLANFGHGKC* [Pep-2_4938]”, the “activity group by size of inhibition zone compared to wild-type Pln-423” value is given as “L”.

Turning to “KYYGNGVTCGKHSCSVNWGQAFSCWVSHLANFGHGKC* [GROUP L-UM-15]”, the “activity group by size of inhibition zone compared to wild-type Pln-423” value is reported as “L”.

Regarding “KYYGNGVTCGKHSCSVNWGQAFSCYASHLANFGHGKC* [Pep-2_5691]”, the “activity group by size of inhibition zone compared to wild-type Pln-423” value is listed as “L”.

Regarding “KYYGNGVTCGKHSCSVNWGQAFSCYMSHLANFGHGAC* [GROUP L-UM-9]”, the “activity group by size of inhibition zone compared to wild-type Pln-423” value is recorded as “L”.

With “KYYGNGVTCGKHSCSVNWGQAFVCSNSHLANFGHGKC* [Pep-2_3639]”, the “activity group by size of inhibition zone compared to wild-type Pln-423” value is reported as “L”.

Take “KYYGNGVTCGKHSCSVNWGQAFVCSVDHLANFGHGKC* [Pep-2_3644]”: the “activity group by size of inhibition zone compared to wild-type Pln-423” value is recorded as “E”.

Consider “KYYGNGVTCGKHSCSVNWGQAFVCSVRHLANFGHGKC* [Pep-2_3643]”, for which the “activity group by size of inhibition zone compared to wild-type Pln-423” value was “L”.

Take “KYYGNGVTCGKHSCSVNWGQAFVCSVSHLANFGHGKC* [Pep-1_34]”: the “activity group by size of inhibition zone compared to wild-type Pln-423” value is “L and E”.

For the compound “KYYGNGVTCGKHSCSVNWGQAFVCSVSHLANFGHGTC* [Pep-2_3699]”, the “activity group by size of inhibition zone compared to wild-type Pln-423” value was “E and H”.

As for “KYYGNGVTCGKHSCSVNWGQAFWCSVSHLANFGHGKC* [Pep-1_36]”, the “activity group by size of inhibition zone compared to wild-type Pln-423” value is listed as “L”.

On to “KYYGNGVTCGKHSCSVNWGQAFWCSVSKLANFGHGKC* [Pep-2_3865]”, for which the “activity group by size of inhibition zone compared to wild-type Pln-423” value is reported as “L”.

With “KYYGNGVTCGKHSCSVNWGQAFYCSVSHLANFGHGKC* [GROUP L-UM-29]”, the “activity group by size of inhibition zone compared to wild-type Pln-423” value is “L”.

Take “KYYGNGVTCGKHSCSVNWGQAGSCSVSRLANFGHGKC* [Pep-2_6539]”: the “activity group by size of inhibition zone compared to wild-type Pln-423” value is on record as “H”.

As to “KYYGNGVTCGKHSCSVNWGQAGSCVVSHLANFGHGKC* [Pep-2_4919]”, the “activity group by size of inhibition zone compared to wild-type Pln-423” value is “L”.

Regarding “KYYGNGVTCGKHSCSVNWGQAIVCSVSHLANFGHGKC* [Pep-2_3622]”, the “activity group by size of inhibition zone compared to wild-type Pln-423” value is given as “L”.

“KYYGNGVTCGKHSCSVNWGQALSCAVSHLANFGHGKC* [Pep-2_5026]”: the “activity group by size of inhibition zone compared to wild-type Pln-423” value was “L”.

For the compound “KYYGNGVTCGKHSCSVNWGQALSCSVTHLANFGHGKC* [GROUP L-UM-8]”, the “activity group by size of inhibition zone compared to wild-type Pln-423” value was “L”.

For the compound “KYYGNGVTCGKHSCSVNWGQAMSCSVSRLANFGHGKC* [Pep-2_6538]”, the “activity group by size of inhibition zone compared to wild-type Pln-423” value is “E”.

“KYYGNGVTCGKHSCSVNWGQAVSCSVHHLANFGHGKC* [GROUP E-UM-6]”: the “activity group by size of inhibition zone compared to wild-type Pln-423” value is “E”.

“KYYGNGVTCGKHSCSVNWGQAVSCSVSHLANFGHGKC* [Pep-1_28]”: the “activity group by size of inhibition zone compared to wild-type Pln-423” value is recorded as “E”.

As for “KYYGNGVTCGKHSCSVNWGQAYSCSVSHLANFGHGKC* [GROUP L-UM-21]”, the “activity group by size of inhibition zone compared to wild-type Pln-423” value is listed as “L”.

As for “KYYGNGVTCGKHSCSVNWGQGFSCAVSHLANFGHGKC* [Pep-2_2447]”, the “activity group by size of inhibition zone compared to wild-type Pln-423” value is “L”.

As to “KYYGNGVTCGKHSCSVNWGQGFSCSVNHLANFGHGKC* [Pep-2_2457]”, the “activity group by size of inhibition zone compared to wild-type Pln-423” value is “L”.

Turning to “KYYGNGVTCGKHSCSVNWGQGFSCSVSHLANFGHGKC* [Pep-1_23]”, the “activity group by size of inhibition zone compared to wild-type Pln-423” value is on record as “L”.

As to “KYYGNGVTCGKHSCSVNWGQSFSCSFSHLANFGHGKC* [Pep-2_5559]”, the “activity group by size of inhibition zone compared to wild-type Pln-423” value is reported as “L”.

As for “KYYGNGVTCGKHSCSVNWGQSFSCSVSHLANFGHGKC* [GROUP E-UM-5]”, the “activity group by size of inhibition zone compared to wild-type Pln-423” value is “E”.

As to “KYYGNGVTCGKHSCSVNWGQVFSCSVSHLANFGHGHC* [Pep-2_11716]”, the “activity group by size of inhibition zone compared to wild-type Pln-423” value is listed as “L”.

As to “KYYGNGVTCGKHSCSVNWGQVFSCSVSHLANFGHGKC* [Pep-1_22]”, the “activity group by size of inhibition zone compared to wild-type Pln-423” value is listed as “L”.

As for “KYYGNGVTCGKHSCSVNWGQWFSCSVSHLANFGMGKC* [Pep-2_10746]”, the “activity group by size of inhibition zone compared to wild-type Pln-423” value is “L”.

As for “KYYGNGVTCGKHSCSVNWGRAFSCSVAHLANFGHGKC* [Pep-2_6307]”, the “activity group by size of inhibition zone compared to wild-type Pln-423” value is “L”.

As for “KYYGNGVTCGKHSCSVNWGRAFSCSVSRLANFGHGKC* [Pep-2_6523]”, the “activity group by size of inhibition zone compared to wild-type Pln-423” value is “L”.

Regarding “KYYGNGVTCGKHSCSVNWGSAFSCSVSHLANFGEGSC* [GROUP L-UM-24]”, the “activity group by size of inhibition zone compared to wild-type Pln-423” value is listed as “L”.

“KYYGNGVTCGKHSCSVNWGTAFSCSISHLANFGHGKC* [Pep-2_1588]”: the “activity group by size of inhibition zone compared to wild-type Pln-423” value was “E”.

Consider “KYYGNGVTCGKHSCSVNWGTAFSCSVSYLANFGHGKC* [GROUP L-UM-14]”, for which the “activity group by size of inhibition zone compared to wild-type Pln-423” value is given as “L”.

As for “KYYGNGVTCGKHSCSVNWGVAFSCSVSHLANFGHGWC* [Pep-2_1758]”, the “activity group by size of inhibition zone compared to wild-type Pln-423” value is “L”.

With “KYYGNGVTCGKHSCSVNWGVAFSCSVSHLANFGHGYC* [Pep-2_1755]”, the “activity group by size of inhibition zone compared to wild-type Pln-423” value is “L”.

In the case of “KYYGNGVTCGKHSCSVNWGWAFSCSVSHLANFGHGKC* [Pep-1_18]”, the “activity group by size of inhibition zone compared to wild-type Pln-423” value is recorded as “L”.

For “KYYGNGVTCGKHSCSVNWNQAFYCSVSHLANFGHGKC* [Pep-2_921]”, the “activity group by size of inhibition zone compared to wild-type Pln-423” value is “L”.

Take “KYYGNGVTCGKHSCSVNYGQAFACSVSHLANFGHGKC* [Pep-2_257]”: the “activity group by size of inhibition zone compared to wild-type Pln-423” value is “L”.

Consider “KYYGNGVTCGKHSCSVNYGQAFSCSVSHLANFGHGAC* [Pep-2_335]”, for which the “activity group by size of inhibition zone compared to wild-type Pln-423” value is “E”.

Take “KYYGNGVTCGKHSCSVNYGQAFSCSVWHLANFGHGKC* [Pep-2_282]”: the “activity group by size of inhibition zone compared to wild-type Pln-423” value is “E”.

On to “KYYGNGVTCGKHSCSVNYGQLFSCSVSHLANFGHGKC* [GROUP L-UM-22]”, for which the “activity group by size of inhibition zone compared to wild-type Pln-423” value is recorded as “L”.

For the compound “KYYGNGVTCGNYSCSVNWGQAFSCSVVHLAEFGHGKC* [GROUP L-UM-10]”, the “activity group by size of inhibition zone compared to wild-type Pln-423” value is “L”.
